The results in this text go back to EP4349409A1, “COMPOUNDS FOR THE MANAGEMENT OF CELL STEMNESS AND INVASION IN CANCER AND RELATED DISEASES” (Instituto Biomar S.A., priority 2022, dated 2024).

SMILES strings stand for the structures.

One data set relates to GNSCs. As to the kind of experiment: Sphere-forming clonogenic assay of GNSCs. The class given is cell-based. The settings on record: 4.5 µM and 9 µM, sphere forming conditions (data not shown). As to the method: To further investigate whether BMT9 reduced stemness potential of the GNSCs, we performed a sphere-forming clonogenic assay. Cells were seeded on sphere forming conditions, that is 40,000 cells/ml without laminin coating. Cells were treated with BMT9 at 4.5 µM and 9 µM 24 h after seeding.

Data set [1] has as its system p73 transcripts originated from the P1 promoter (TAp73, ΔEx2p73, ΔEx2/3p73). As to the kind of experiment: qRT-PCR of p73 transcripts from the P1 promoter in U373 cells. Type of data set: cell-based, human. To be noted: U373, same conditions as screening, 18S control. As to the method:
Expression levels of TAp73 (Figure 2C), ΔEx2p73 (Figure 2D) and ΔEx2/3p73 (Figure 2E) were determined by qRT-qPCR using 18S ribosomal RNA as housekeeping control, and all the expression values were normalized to TAp73 expression in non-treated cells (NT). […] The amino-truncated isoforms that are tumor-specific are vigorously expressed in advanced stages across a variety of highly aggressive human cancers (Knoll et al., 2011; Steder et al., 2013; George et al., 2015; Meier et al., 2016) and promote tumor initiation (Tannapfel et al., 2008) and cancer progression (Engelmann et al., 2015). Moreover, there is a somatic genomic rearrangement of TP73 that generates an oncogenic Ex2/3p73 in small cell lung cancer (George et al., 2015). BMT9 represses the activity of the P1-TP73 promoter, therefore it would be expected to downregulate the expression of any of the isoforms generated from this promoter in a given cell.
(In qPCR the cycle at which signal appears reflects the starting amount.)

A further data set deals with G144 cells. As to the kind of experiment: Annexin V / propidium iodide apoptosis flow cytometry in G144 cells. The settings on record: 48 h. The class given is cell-based, human. As to the method:
For apoptosis induction analysis, the cells were treated with increasing amounts of BMT9 (4.5 µM and 9 µM) and collected 48 h after treatment. Anexin V and propidium iodide staining was performed using the FITC Annexin V Apoptosis Detection Kit I (BD Biosciences), following the manufacturer's instructions. Flow cytometry was performed with the "MACSQuantify Analyzer" (Miltenyi Biotec) and data were analyzed with "MACSQuantify" software (Miltenyi Biotec) (Figure 7A).

The subject of data set [2] is invasiveness-related genes. The data set can be described thus: qRT-PCR of invasiveness-related genes in G144 cells. The class given is cell-based, human. To be noted: G144, 4.5 µM, 72 h. On the procedure:
For expression analysis, G144 cells were treated with BMT9 (4.5 µM) and after 72 h mRNA was extracted and qRT-PCR was performed.

Another data set relates to TAp73. As to the kind of experiment: Western blot of endogenous TAp73 protein in U373 and T98G glioblastoma cell lines. The class given is cell-based, human. To be noted: 72 h, BMT9 9 and 18 µM, TMZ 350 µM, BCNU 150 µM. As to the method: Next, we compared the effect of BMT9 and TMZ or BCNU treatments on endogenous TAp73 protein levels in U373 and T98G glioblastoma cell lines (Figure 2F and G). Cells were treated for 72 h either with BMT9 at 9 and 18 µM, or with TMZ and BCNU at the standard concentrations referred in other articles (350 µM and 150 µM, respectively). Protein extracts were obtained and analyzed by Western blot using a TAp73 specific antibody and GAPDH as a loading control. Densitometric quantification of the obtained blots are represented in Figure 2F and G (Y axis, ratio of TAp73/GAPDH band intensity and X axis, indicated treatments).

A further data set relates to G144. The data set can be described thus: Scratch (wound healing) assay, G144. The class given is cell-based, human. The settings on record: G144, 4.5µM, 24 h. As to the method:
The effect of BMT9 in cell migration was evaluated using scratch assays, also known as wound healing assays. Cells were seeded in culture inserts for wound healing assays (Ibidi) at a cell density of 35,000 cells/cm^2; 24 h later the insert was removed to create the wound, and fresh medium was added with the corresponding treatment. Microscopy images were acquired at the time of treatment and 24 h later, using a Leica DMI3000 phase contrast microscope. Analysis was performed using the ImageJ software (Schindelin et al., 2012) and the MRI wound healing tool plugin (Suarez-Arnedo et al., 2020). Cell-free area was measured at the two indicated time points and the wound closure percentage relative to the starting point was calculated for each well individually. This assay was performed in G144 and in G179 cells (Figure 10 B and C, respectively).

A short description of data set [3]: Maximum Tolerated Dose after intraperitoneal administration. To be noted: mouse, in vivo, ip; female C57BL/6 mice, single intraperitoneal dose, seven days. As to the method: The Maximum Tolerated Dose (MTD) and Pharmacokinetics (PK) of BMT9 were determined after intraperitoneal administration to female C57BL/6 (~25 g) mice.
C57BL/6 female mice (9-13 weeks in age) were administered intraperitoneally with a single dose of BMT9 at 35, 50, 75, 100 or 200 mg/Kg. Total of 3 animals were used for each independent serial sampling experiment. The compound was dissolved in an appropriate vehicle (Cremophor:EtOH:H20 1:1:8). Body weight, distress and survival were monitored 1, 2, 4 hours and 8 hours post-administration and every day during the whole observation period. The MTD was set on the dose below the first dose that caused severe loss of body weight (>20%) or death of one or more animals of a dose group seven days after treatment. The MTD of BMT9 was therefore set on about 140 mg/kg. The concentrations of BMT9 in plasma was determined at different times per duplicate using a previously validated analytical method. The compound was injected via i.p at 100 mg/kg. Total of 3 animals were used for each independent serial sampling experiment. Blood samples were collected at 5, 15, 30 min, 1, 4, 10, 24, and 48 hours from each animal via cardiac puncture; […] withdrawn at each time point. 25 microliters of blood sample were then used for quantitative bioanalysis by HPLC-MS/MS. […]

Another data set concerns CD133. The data set can be described thus: CD133 stemness marker flow cytometry in G144 cells. Type of data set: cell-based, human. The settings on record: G144, 48 hours; BMT9 4.5-9 µM, TMZ 500 µM, BCNU 250 µM. As to the method: Next, we asked if BMT9 treatment at IC50 could specifically affect the stemness of GNSC. To address this point, cells were seeded and treated 24 h later with BMT9 (4.5-9 µM), TMZ (500 µM) or BCNU (250 µM). After 48 hours of treatment, cells were collected and stained with a CD133 (stemness marker) antibody (AC133, Milyenty Biotec) or the corresponding Ig-isotype control. Flow cytometric analysis were performed with the previously mentioned equipment.
On the technique in general: In flow cytometry, cells or beads pass a laser one at a time.

A further data set has as its system GNSC. The data set can be described thus: Immunostaining for Nestin, Tuj1 and GFAP (differentiation) in GNSC. Type of data set: cell-based. The settings on record: 4.5 µM. On the procedure:
Moreover, we asked whether BMT9, at IC50 concentration, induced differentiation of these GNSC. For these experiments, cells were seeded under proliferation conditions and treated with BMT9 at 4.5 µM for 72 h. Cells were fixed with 3.7% paraformaldehyde for 15 min and immunostained with Nestin, Tuj1 and GFAP specific antibodies. Samples were analyzed using a Zeiss LSM800 confocal microscopy. To quantify the percentage of neural (Tuj-1) (Figure 7D) and astrocytic (GFAP+) (Figure 7E) differentiated cells, positive cells for each marker were manually counted and compared with the total number of cells.

Take `C=C1C2CCC(C)(C3COc4c(C)c(OC)c5c(c4C3O)C(O)OC5=O)C1CCC2(C)C` (stereo not drawn) [BMT9]: the sphere generation result with GNSCs is recorded as “reduce sphere generation in a dose dependent manner”. Also, the “expression levels of TAp73, ΔEx2p73 and ΔEx2/3p73” value in [1] is on record as “reduced them all”. Besides, the apoptosis induction result with G144 cells (G144, 4.5 µM (IC50 dosage)) was “moderate levels of apoptosis”. In addition, the apoptosis induction result in the data set on G144 cells (G144, 9 µM) was “strongly induced cell death”. Moreover, in data set [2], the “expression of a set of invasiveness-related genes” value is reported as “downregulation of all the analyzed genes”. Further, the “endogenous TAp73 protein levels (TAp73/GAPDH)” value in the data set on TAp73 is listed as “efficiently reduced endogenous TAp73 expression”. Further, the “cell migration (wound closure)” value in the data set with G144 is reported as “significantly impaired cell migration”. Besides, the MTD – broadly, the largest dose that counted as tolerated – at 168 h in [3] is around 140 mg/kg. Further, in the data set with CD133, the “CD133 expression levels (Mean Fluorescence Intensity)” value is recorded as “significantly reduced” and the “percentage of CD133 positive cells” value is “significantly reduced”. Moreover, in the data set with GNSC (72 h (data not shown)), the “expression of the stem cell marker Nestin” value is given as “reduced the expression of the stem cell marker Nestin”. For the same compound, the “neural differentiation (Tuj1 and GFAP positive cells)” value in the data set on GNSC (72 h, proliferating culture conditions) was “induced neural differentiation”.
